In general, IC50 refers to the concentration needed to halve the response being measured.

Results on one compound are retold here after patent US9556153B1, “JAK1 inhibitors” (Eli Lilly and Company, priority 2015, dated 2017).

Each structure is given as a SMILES string.

The target of one assay is JAK1 (Homo sapiens, UniProt P23458). The assay can be described thus: JAK LanthaScreen Kinase Assay (TR-FRET), JAK1 in vitro enzyme assay. Format: biochemical. Particulars: ATP 20.0 μM; n=6. An excerpt:
(§1) JAK1, JAK2 and JAK3 In Vitro Enzyme Assays
(§2) The JAK LanthaScreen™ Kinase Assay (Invitrogen) is used to determine the ability of test compounds to inhibit JAK1, JAK2 and JAK3 kinase activity. These are TR-FRET assay formats that use long-lifetime terbium labeled antibody as the donor species and GFP-STAT1 as the acceptor species. Use the TR-FRET ratio to monitor JAK kinase activity where an increase in phosphorylation of the GFP-STAT1 results in an increase in the TR-FRET ratio. Perform the kinase reaction using a 12.5 μl reaction volume in shallow black 384-well Proxiplate. Add reagents to obtain final reaction conditions of […] HEPES pH, 1.76 mM Triton X-100, ATP (20.0 μM for JAK1 and JAK3 or 5 μM for JAK2) enzyme assays, 10.0 mM MgCl2, 1 mM EGTA and 0.01% Brij-35, 0.05 mM GFP-STAT1, 14 nM JAK1 enzyme for JAK1, 1.0 nM for JAK2 or 2.5 nM for JAK3 enzyme assays, and 4% DMSO and serial dilutions of test compound (diluted 1:3 from 20,000 to 1 nM). Following ATP/GFP-STAT1 addition, centrifuge the assay plates for 1 minute at 1000 revolutions per minute (RPM). Allow the plates to incubate at RT for 60 minutes and then add 12.5 μl of a stopping buffer containing 20 mM EDTA, 2 nM Terbium-anti-phosphorylated Signal Transducers and Activators of Transcription [phosphorylation Tyrosine 701 amino acid] […]
A general note: TR-FRET usually uses a lanthanide donor and a delayed reading to cut background.

Assay [1] relates to Ba/F3 cells expressing human mtJAK1 (S729C). The assay can be described thus: BaF3 Mutant JAK-1 (S729C) Clone 12 Proliferation Assay. Format: cell-based, Murine. Particulars: BaF3, 72 h; 3 day incubation, Cell Titer Glo; n=4. Here is the method: BaF3 Mutant JAK-1 (S729C) Clone 12 Proliferation Assay
The purpose of this assay is to determine the inhibitory activity of JAK-1 specific inhibitors using the BaF3 mutant JAK-1 (S729C) Clone 12 proliferation assay.
mtJAK1 (S729C) expressing cell line is created by transducing Ba/F3 cells (Murine pro-B-cells) with a retrovirus expressing human mtJAK1 (S729C)-pQCXIN vector DNA. Single cell cloning is performed to select Ba/F3 cells expressing highest levels of mtJAK1 (S729C) by serial dilution. BaF3 mutant JAK-1 (S729C) suspension cells are cultured and maintained in (Gibco RPMI 1640 cat# A10491-01) containing 10% Hi-FBS (Hyclone cat#10082-047), 1 μg/ml puromycin dihydrochloride (Sigma cat#9620), 1.0 mg/mL G418 sulfate (Corning ref#30-234-CI), referred to as R10+ from now on.
Proliferation assays are performed in culture medium without selection and from now on will be referred to as (R10−). Briefly, cultured cells are decanted, centrifuged and reconstituted in 10 mL of R10− and counted using a Beckman Coulter Vi-Cell. Cells are further diluted to 2e4/mL in R10− and plated in a 96 well white opaque assay plates (Costar cat#3610) at 1×10^3 cells (50 μls) per well. […] Luminescence is then read on a Perkin Elmer Victor2 using a preset program for luminescence at 0.1 second. […]

A further assay concerns HCC827 xenograft tumor. Briefly: Efficacy Study in HCC827 Xenograft Tumor Model. Format: in vivo, mouse. Particulars: oral gavage, 28 days, HCC827 xenograft mice. Here is the method: Efficacy Study in HCC827 Xenograft Tumor Model
The purpose of this assay is to measure the ability of compounds to inhibit tumor growth in the HCC827 xenograft mouse model. Grow HCC827 cells (ATCC# CRL-2868, Lot#59392891) according to ATCC specifications at the lowest possible passage number available. Culture cells and maintain in RPMI-1640 supplemented with 10% FBS and incubate at 37° C. in 5% CO2. Harvest cells from flasks using TryPLE, rinse twice in DPBS, resuspend in HBSS, and mix with BD Biosciences basement membrane matrix (MATRIGEL®) to cell suspension to achieve a 1:1 cell/matrix ratio yielding an inoculation volume of 0.2 ml cell/matrix suspension containing 5e^6 cells. Maintain cell suspensions on ice throughout the inoculation procedure and start implantations within one hour after cell culture harvest. Administer implantations subcutaneously in the right rear flank of female CB17 SCID mice obtained from Harlan (18-20 g). Feed mice Harlan Teklad Protein Extruded 2920X ad libitum and provide water with the rack watering system. Allow the implanted tumor cells to grow as a solid tumor and measure twice a week along with body weight beginning the seventh day after implantation. Determine tumor volumes using the calculation: 0.536*L*W^2. After tumor volume reaches approximately 150-200 mm^3, randomize animals and place into groups containing 5-8 animals each. Formulate the compounds in 1% HEC vehicle containing 0.25% Tween 80 and 0.05% antifoam with 1.1 molar equivalent of methanesulfonic acid to form an in situ salt (1.1 mL of 1N methanesulfonic acid per (insert molecular weight) mg of compound). Store test compound at RT. Formulate compounds once per week, and store at RT. […] Calculate doses based on the most recent group mean body weight. Administer compounds by oral gavage for 28 days either BID or QD depending on dosage.

A further assay concerns the target JAK2 (Homo sapiens, UniProt O60674). Briefly: JAK LanthaScreen Kinase Assay (TR-FRET), JAK2 in vitro enzyme assay. Format: biochemical. The following applies: ATP 5 μM; n=6. Further details: purchased Invitrogen.
Excerpt: as §1, §2

Chain of JAK2 (O60674 whole entry): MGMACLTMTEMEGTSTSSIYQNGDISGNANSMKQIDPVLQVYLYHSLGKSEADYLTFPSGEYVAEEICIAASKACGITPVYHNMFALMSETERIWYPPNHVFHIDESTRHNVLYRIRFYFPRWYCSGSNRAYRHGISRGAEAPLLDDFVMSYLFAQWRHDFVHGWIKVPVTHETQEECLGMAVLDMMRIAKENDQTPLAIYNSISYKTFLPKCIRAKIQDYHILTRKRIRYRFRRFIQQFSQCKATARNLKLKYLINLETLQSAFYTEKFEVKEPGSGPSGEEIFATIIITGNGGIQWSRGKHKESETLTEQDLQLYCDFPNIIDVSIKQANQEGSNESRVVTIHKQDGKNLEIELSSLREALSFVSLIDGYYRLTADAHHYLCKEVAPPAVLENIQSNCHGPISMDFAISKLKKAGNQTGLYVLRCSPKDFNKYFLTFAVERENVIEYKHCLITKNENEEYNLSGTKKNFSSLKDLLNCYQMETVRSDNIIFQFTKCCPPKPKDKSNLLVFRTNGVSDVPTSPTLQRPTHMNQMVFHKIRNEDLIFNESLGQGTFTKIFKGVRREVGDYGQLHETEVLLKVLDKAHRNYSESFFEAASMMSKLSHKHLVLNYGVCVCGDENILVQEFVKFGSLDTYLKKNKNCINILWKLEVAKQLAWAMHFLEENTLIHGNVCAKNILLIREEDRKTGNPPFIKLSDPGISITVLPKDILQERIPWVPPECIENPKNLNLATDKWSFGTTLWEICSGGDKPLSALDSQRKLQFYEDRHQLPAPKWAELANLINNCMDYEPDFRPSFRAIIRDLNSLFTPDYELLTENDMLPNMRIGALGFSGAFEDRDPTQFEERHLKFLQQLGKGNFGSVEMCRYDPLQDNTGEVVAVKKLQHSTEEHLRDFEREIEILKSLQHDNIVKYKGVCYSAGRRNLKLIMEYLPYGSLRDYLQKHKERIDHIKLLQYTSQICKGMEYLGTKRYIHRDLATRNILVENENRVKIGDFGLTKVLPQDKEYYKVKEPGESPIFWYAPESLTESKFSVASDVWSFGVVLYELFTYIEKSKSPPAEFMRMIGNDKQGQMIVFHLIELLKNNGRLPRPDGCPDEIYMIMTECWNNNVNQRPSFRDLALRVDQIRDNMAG
Chain of JAK1 (P23458 whole entry): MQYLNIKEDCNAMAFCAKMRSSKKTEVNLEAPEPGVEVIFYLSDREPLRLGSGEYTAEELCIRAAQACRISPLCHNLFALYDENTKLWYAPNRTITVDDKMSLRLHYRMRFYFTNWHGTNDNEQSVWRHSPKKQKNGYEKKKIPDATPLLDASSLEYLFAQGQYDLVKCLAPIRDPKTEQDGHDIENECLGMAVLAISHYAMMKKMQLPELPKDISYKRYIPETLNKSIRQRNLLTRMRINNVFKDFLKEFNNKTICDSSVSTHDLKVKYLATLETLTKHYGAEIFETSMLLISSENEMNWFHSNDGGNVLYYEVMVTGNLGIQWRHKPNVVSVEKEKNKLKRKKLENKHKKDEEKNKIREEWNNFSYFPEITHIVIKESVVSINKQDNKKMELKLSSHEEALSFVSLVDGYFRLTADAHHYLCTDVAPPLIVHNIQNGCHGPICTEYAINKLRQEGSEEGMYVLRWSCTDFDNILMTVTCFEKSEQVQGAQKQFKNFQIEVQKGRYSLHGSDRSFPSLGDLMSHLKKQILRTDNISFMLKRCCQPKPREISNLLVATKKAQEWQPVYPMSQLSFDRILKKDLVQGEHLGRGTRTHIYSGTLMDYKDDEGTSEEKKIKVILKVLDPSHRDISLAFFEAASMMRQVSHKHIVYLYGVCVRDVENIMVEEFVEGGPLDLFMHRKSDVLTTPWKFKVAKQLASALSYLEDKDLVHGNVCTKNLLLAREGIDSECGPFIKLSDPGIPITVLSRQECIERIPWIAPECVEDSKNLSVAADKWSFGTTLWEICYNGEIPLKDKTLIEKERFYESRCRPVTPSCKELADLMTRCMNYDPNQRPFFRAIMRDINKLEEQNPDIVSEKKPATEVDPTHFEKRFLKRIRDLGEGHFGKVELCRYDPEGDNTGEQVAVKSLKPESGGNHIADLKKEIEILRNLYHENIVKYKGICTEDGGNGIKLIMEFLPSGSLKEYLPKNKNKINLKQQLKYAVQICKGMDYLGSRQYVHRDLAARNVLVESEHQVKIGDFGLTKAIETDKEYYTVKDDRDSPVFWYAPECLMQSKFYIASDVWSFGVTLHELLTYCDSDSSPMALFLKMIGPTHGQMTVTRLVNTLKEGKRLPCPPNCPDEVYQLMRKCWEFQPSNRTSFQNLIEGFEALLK

Turning to `Cc1cc(Nc2cc(O[C@H]3CC[C@@H](NC[C@@H](O)C(F)(F)F)CC3)cc3c2ncn3C)nn1C` [Example 1, (2R)-3-{[cis-4-({4-[(1,5-Dimethyl-1H-pyrazol-3-yl)amino]-1-methyl-1H-benzimidazol-6-yl}oxy)cyclohexyl]amino}-1,1,1-trifluoropropan-2-ol], the figures for the IC50 (at JAK1; in assay [1]; at JAK2) were 4 ± 0.8 nM, 956 nM and 557 ± 337 nM, respectively. This compound also registered a tumor growth inhibition in the assay with HCC827 xenograft tumor (30 mg/kg BID) of 31%. For the same compound, the tumor regression in the assay on HCC827 xenograft tumor (60 mg/kg BID) and in the assay on HCC827 xenograft tumor (120 mg/kg QD) was 22% in each case.
